Results as given in ChEMBL document CHEMBL6177945, “Dyad System of BOAHY-BODIPY Conjugates as Novel Photoswitchable Photosensitizers for Photodynamic Therapy” (J Med Chem, 2025).
pIC50: −log10 of the molar value. Activity calls are given as the source filed them. The calls are words filed in the database; no cut-off is given here.

Assays:
HeLa [1] = experiment: Photocytotoxicity against human HeLa cells at 10 uM incubated with compound for 30 mins under 365 nm UV light for 5 mins followed white LED exposure for 10 mins and measured after 20 hrs post-illumination by MTT assay; type: functional, cell-based; conditions: time 20.75 hrs
HeLa [2] = experiment: Cytotoxicity against human HeLa cells up to 100 uM incubated for 4 hrs by MTT assay; type: toxicity, cell-based
[3] = Induction of type-1 ROS generation in PBS assessed as increase in superoxide anion radical by measuring increase in DHR123 fluorescence intensity at 10 uM irradiated with 450 to 800 nm 40.8 mW cm^-2 light up to 10 mins by DHR123 fluorescence based analysis; type: functional
HeLa [4] = experiment: Photocytotoxicity in human HeLa cells at 10 uM incubated for 30 mins irradiated with 450 to 800 nm 40.8 mW cm^-2 white LED light and measured after 20 hrs by MTT assay; type: functional, cell-based; conditions: time 20.5 hrs
[5] = Induction of type-II ROS generation in PBS assessed as increase in singlet oxygen by measuring ABDA absorption at 20 uM irradiated with 450 to 800 nm 40.8 mW cm^-2 light up to 10 mins by ABDA based UV-vis absorption spectrophotometric analysis; type: functional
HeLa [6] = experiment: Upregulation of cellular redox metabolism related proteins in human HeLa cells under white light irradiation exposure by GO analysis; type: functional, cell-based
HeLa [7] = experiment: Photocytotoxicity against human HeLa cells at 10 uM incubated with compound for 30 mins under 365 nm UV light for 1 mins followed white LED exposure for 2 mins and measured after 20 hrs post-illumination by MTT assay; type: functional, cell-based; conditions: time 20.55 hrs
HeLa [8] = experiment: Upregulation of ROS generation related proteins in human HeLa cells under white light irradiation exposure by GO analysis; type: functional, cell-based
[9] = Induction of type-II ROS generation in PBS assessed as increase in singlet oxygen by measuring ABDA absorption under white lamp exposure for 10 mins and UV light for 15 mins followed by white lamp exposure for another 10 mins by ABDA based UV-vis absorption spectrophotometric analysis; type: functional; conditions: time 35.0 min
[10] = Induction of type-1 ROS generation in PBS assessed as increase in superoxide anion radical by measuring increase in DHR123 fluorescence intensity under white lamp exposure for 10 mins and UV light for 15 mins followed by white lamp exposure for another 10 mins by DHR123 fluorescence based analysis; type: functional; conditions: time 35.0 min
HeLa [11] = experiment: Photocytotoxicity against human HeLa cells at 10 uM incubated with compound for 30 mins under 365 nm UV light for 1 mins and measured after 20 hrs post-illumination by MTT assay; type: functional, cell-based; conditions: time 20.51 hrs
[12] = Phototoxicity in human HeLa cells assessed as cell viability under white LED light for 10 mins; type: functional, cell-based; conditions: light or radiation study

SMILES	Activity (HeLa [1])	Activity (HeLa [2])	Activity [3]	Activity [5]	also measured
COc1ccc(C2=N/[N+](=C\C3=C(C)C4=C(c5ccccc5)c5c(C)c(/C=[N+]6\N=C(c7ccc(OC)cc7)O[B-]6(F)F)c(C)n5[B-](F)(F)[N+]4=C3C)[B-](F)(F)O2)cc1	Active	Non-toxic	–	–	–
CC1=C(/C=[N+]2\N=C(c3ccccc3)O[B-]2(F)F)C(C)=[N+]2C1=C(c1ccccc1)c1c(C)c(/C=[N+]3\N=C(c4ccccc4)O[B-]3(F)F)c(C)n1[B-]2(F)F	Active	Non-toxic	Active	–	–
CC1=CC(C)=[N+]2C1=C(c1ccccc1)c1c(C)c(/C=[N+]3\N=C(c4ccccc4)O[B-]3(F)F)c(C)n1[B-]2(F)F	–	Non-toxic	Active	Not active; Slight Changes In Abda Absorption Observed	Activity (HeLa [4]): Active
COc1ccc(C2=N/[N+](=C\c3c(C)c4n(c3C)[B-](F)(F)[N+]3=C(C)C(I)=C(C)C3=C4c3ccccc3)[B-](F)(F)O2)cc1	–	–	Active	–	Activity (HeLa [6]): Active; Activity (HeLa [7]): Active; Activity (HeLa [8]): Active
COc1ccc(C2=N/[N+](=C/c3c(C)c4n(c3C)[B-](F)(F)[N+]3=C(C)C=C(C)C3=C4c3ccccc3)[B-](F)(F)O2)cc1	Active	–	–	–	Activity [9]: Active; Activity [10]: Active
CC1=C(I)C(C)=[N+]2C1=C(c1ccccc1)c1c(C)c(/C=[N+]3\N=C(c4ccccc4)O[B-]3(F)F)c(C)n1[B-]2(F)F	–	–	Active	Active	Activity (HeLa [11]): Active; pIC50 [12]: 5.47
COc1ccc(C2=N/[N+](=C\c3c(C)c4n(c3C)[B-](F)(F)[N+]3=C(C)C=C(C)C3=C4c3ccccc3)[B-](F)(F)O2)cc1	–	Non-toxic	Active	Not active; Slight Changes In Abda Absorption Observed	Activity (HeLa [4]): Active
CC1=C(I)C(C)=[N+]2C1=C(c1ccccc1)c1c(C)c(/C=[N+]3\N=C(c4ccc([N+](=O)[O-])cc4)O[B-]3(F)F)c(C)n1[B-]2(F)F	–	–	Active	–	–
CC1=CC(C)=[N+]2C1=C(c1ccccc1)c1c(C)c(/C=[N+]3/N=C(c4ccc([N+](=O)[O-])cc4)O[B-]3(F)F)c(C)n1[B-]2(F)F	Active	–	–	–	–
CC1=CC(C)=[N+]2C1=C(c1ccccc1)c1c(C)c(/C=[N+]3\N=C(c4ccc([N+](=O)[O-])cc4)O[B-]3(F)F)c(C)n1[B-]2(F)F	–	Non-toxic	Active	Not active; Slight Changes In Abda Absorption Observed	–
CC1=CC(C)=[N+]2C1=C(c1ccccc1)c1c(C)c(/C=[N+]3/N=C(c4ccccc4)O[B-]3(F)F)c(C)n1[B-]2(F)F	Active	–	–	–	Activity [9]: Active; Activity [10]: Active
